Patent US6737383B1, “Herbicidal oxadiazolidines” (priority 1999, dated 2004)

Legend:
blackgrass = assay: Test B pre/postemergence blackgrass; format: in vivo, Alopecurus myosuroides
Summary of the method: (§1)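 Test chemicals in a non-phytotoxic solvent mixture with surfactant were sprayed preemergence onto planted seeds and postemergence onto plants 2 to 18 cm tall (1- to 4-leaf stage). After twelve to sixteen days in a greenhouse, injury was visually rated against untreated controls from 0 (no effect) to 10 (complete control).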

giant foxtail = assay: Test B pre/postemergence giant foxtail; format: in vivo, Setaria faberii
Summary of the method: as §1

smallflower flatsedge = assay: Test B flood test smallflower flatsedge; format: in vivo, Cyperus difformis
Summary of the method: (§2)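 Each value is a visual injury score relative to controls, with 10 meaning complete control and 0 no effect. Evaluation took place twelve to sixteen days after the 2-leaf-stage plants were treated and kept in the greenhouse.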

wild oat = assay: Test B pre/postemergence wild oat; format: in vivo, Avena fatua; conditions: for Plant response rating, Wild oats: Rate 250 g/ha
Summary of the method: as §1

sugar beet = assay: Test B pre/postemergence sugar beet; format: in vivo, Beta vulgaris; conditions: for Plant response rating, Sugarbeets: Rate 250 g/ha
Summary of the method: as §1

velvetleaf = assay: Test B pre/postemergence velvetleaf; format: in vivo, Abutilon theophrasti; conditions: for Plant response rating, Velvetleaf: Rate 250 g/ha
Summary of the method: as §1

pigweed = assay: Test B pre/postemergence pigweed; format: in vivo, Amaranthus retroflexus
Summary of the method: as §1

purple nutsedge = assay: Test B pre/postemergence purple nutsedge; format: in vivo, Cyperus rotundus
Summary of the method: as §1

bamyardgrass = assay: Test B flood test barnyardgrass; format: in vivo, Echinochloa crus-galli
Summary of the method: as §2

morningglory = assay: Test B pre/postemergence morningglory; format: in vivo, Ipomoea hederacea
Summary of the method: as §1

surinam grass = assay: Test B pre/postemergence surinam grass; format: in vivo, Brachiaria decumbens
Summary of the method: as §1

corn = assay: Test B pre/postemergence corn; format: in vivo, Zea mays
Summary of the method: as §1

soybean = assay: Test B pre/postemergence soybean; format: in vivo, Glycine max
Summary of the method: as §1

rape = assay: Test B pre/postemergence rape; format: in vivo, Brassica napus
Summary of the method: as §1

crabgrass = assay: Test B pre/postemergence crabgrass; format: in vivo, Digitaria sanguinalis
Summary of the method: as §1

cocklebur = assay: Test B pre/postemergence cocklebur; format: in vivo, Xanthium strumarium
Summary of the method: as §1

[1] = Postemergence, Rate 125 g/ha, scale of 0 to 10 where 0 is no effect and 10 is complete control
[2] = Postemergence, Rate 250 g/ha, scale 0 to 10, 0 no effect, 10 complete control
[3] = Preemergence, Rate 62 g/ha, scale 0 to 10 (0 no effect, 10 complete control)
[4] = Preemergence, Rate 125 g/ha, scale 0 to 10 (0 no effect, 10 complete control)
[5] = Preemergence, Rate 250 g/ha, scale of 0 to 10 where 0 is no effect and 10 is complete control
[6] = Preemergence, Rate 500 g/ha, scale 0 to 10 (0 no effect, 10 complete control)
[7] = Rate 62 g/ha, Postemergence, scale of 0 to 10 where 0 is no effect and 10 is complete control
[8] = Rate 500 g/ha, Postemergence, scale 0 to 10, 0 no effect, 10 complete control
[9] = Rate 500 g/ha, listed under Postemergence (flood test species), scale 0 to 10, 0 no effect, 10 complete control
[10] = Preemergence, Rate 125 g/ha, 0 is no effect, 10 is complete control
[11] = Preemergence, scale of 0 to 10 where 0 is no effect and 10 is complete control
[12] = Postemergence, scale 0 to 10, 0 is no effect, 10 is complete control
[13] = Rate 250 g/ha, Postemergence, scale 0 to 10, 0 is no effect, 10 is complete control
[14] = Postemergence, Rate 62 g/ha, scale 0 to 10, 0 is no effect, 10 is complete control

For `CC(C)N(C(=O)n1oc(=O)n(C2CCCCC2)c1=O)c1ccccc1` [Compound 112], the “Blackgrass plant response rating” value (blackgrass; [1]) was 4, the “Blackgrass plant response rating” value (blackgrass; [2]) was 5 and the “Blackgrass plant response rating” value (blackgrass; [3]) was 0. For the same molecule, the “Plant response rating, Blackgrass” value (blackgrass; [4]) was 0, the “Plant response rating, Blackgrass” value (blackgrass; [5]) was 2 and the “Blackgrass plant response rating” value (blackgrass; [6]) was 5. For the same molecule, the “Blackgrass plant response rating” value (blackgrass; [7]) was 0, the “Blackgrass plant response rating” value (blackgrass; [8]) was 7 and the “Giant foxtail plant response rating” value (giant foxtail; [1]) was 7. The “Giant foxtail plant response rating” value (giant foxtail; [2]) was 7, the “Giant foxtail plant response rating” value (giant foxtail; [3]) was 8 and the “Plant response rating, Giant foxtail” value (giant foxtail; [4]) was 10. For the same molecule, the “Plant response rating, Giant foxtail” value (giant foxtail; [5]) was 10, the “Giant foxtail plant response rating” value (giant foxtail; [6]) was 10 and the “Giant foxtail plant response rating” value (giant foxtail; [7]) was 2. For the same molecule, the “Giant foxtail plant response rating” value (giant foxtail; [8]) was 8, the “S. Flatsedge plant response rating” value (smallflower flatsedge; Postemergence (flood test species), Rate 125 g/ha, scale of 0 to 10 where 0 is no effect and 10 is complete control) was 0 and the “S. Flatsedge plant response rating” value (smallflower flatsedge; Rate 62 g/ha, Postemergence section, flood test species, scale of 0 to 10 where 0 is no effect and 10 is complete control) was 0. For the same molecule, the “Plant response rating, S. Flatsedge” value (smallflower flatsedge; Rate 250 g/ha, Postemergence (flood test), scale 0 to 10, 0 is no effect, 10 is complete control) was 0, the “S. Flatsedge plant response rating” value (smallflower flatsedge; [9]) was 0 and the “Wild oats plant response rating” value (wild oat; [1]) was 0. For the same molecule, the “Wild oats plant response rating” value (wild oat; [3]) was 0, the “Wild oats plant response rating (0 to 10 scale)” value (wild oat; [10]) was 0 and the “Plant response rating, Wild oats” value (wild oat; [11]) was 2. The “Wild oats plant response rating” value (wild oat; [6]) was 6, the “Wild oats plant response rating” value (wild oat; [7]) was 0 and the “Plant response rating, Wild oats” value (wild oat; [12]) was 0. The “Wild oats plant response rating” value (wild oat; [8]) was 1, the “Sugarbeets plant response rating” value (sugar beet; [1]) was 2 and the “Sugarbeets plant response rating” value (sugar beet; [3]) was 0. The “Sugarbeets plant response rating (0 to 10 scale)” value (sugar beet; [10]) was 0, the “Plant response rating, Sugarbeets” value (sugar beet; [11]) was 0 and the “Sugarbeets plant response rating” value (sugar beet; [6]) was 0. The “Sugarbeets plant response rating” value (sugar beet; [7]) was 2, the “Plant response rating, Sugarbeets” value (sugar beet; [12]) was 3 and the “Sugarbeets plant response rating” value (sugar beet; [8]) was 3. The “Velvetleaf plant response rating” value (velvetleaf; [1]) was 0, the “Velvetleaf plant response rating” value (velvetleaf; [3]) was 0 and the “Velvetleaf plant response rating (0 to 10 scale)” value (velvetleaf; [10]) was 2. For the same molecule, the “Plant response rating, Velvetleaf” value (velvetleaf; [11]) was 4, the “Velvetleaf plant response rating” value (velvetleaf; [6]) was 5 and the “Velvetleaf plant response rating” value (velvetleaf; [7]) was 0. For the same molecule, the “Plant response rating, Velvetleaf” value (velvetleaf; [12]) was 1, the “Velvetleaf plant response rating” value (velvetleaf; [8]) was 1 and the “Redroot pigweed plant response rating” value (pigweed; [1]) was 3. The “Redroot pigweed plant response rating” value (pigweed; [3]) was 0, the “Plant response rating, Redroot pigweed” value (pigweed; [4]) was 2 and the “Plant response rating, Redroot pigweed” value (pigweed; [5]) was 7. The “Redroot pigweed plant response rating” value (pigweed; [6]) was 9, the “Redroot pigweed plant response rating” value (pigweed; [7]) was 2 and the “Plant response rating, Redroot pigweed” value (pigweed; [13]) was 5. The “Redroot pigweed plant response rating” value (pigweed; [8]) was 5, the “Nutsedge plant response rating” value (purple nutsedge; [1]) was 0 and the “Nutsedge plant response rating” value (purple nutsedge; [2]) was 0. For the same molecule, the “Nutsedge plant response rating” value (purple nutsedge; [3]) was 0, the “Plant response rating, Nutsedge” value (purple nutsedge; [4]) was 0 and the “Plant response rating, Nutsedge” value (purple nutsedge; [5]) was 0. The “Nutsedge plant response rating” value (purple nutsedge; [6]) was 0, the “Nutsedge plant response rating” value (purple nutsedge; [7]) was 0 and the “Nutsedge plant response rating” value (purple nutsedge; [8]) was 0. The “Barnyardgrass plant response rating” value (bamyardgrass; [14]) was 0, the “Barnyardgrass plant response rating” value (bamyardgrass; Rate 125 g/ha, Postemergence section (flood test species), scale 0 to 10, 0 no effect, 10 complete control) was 0 and the “Barnyardgrass plant response rating” value (bamyardgrass; [9]) was 0. For the same molecule, the “Barnyardgrass plant response rating” value (bamyardgrass; flood test, listed under Postemergence, Rate 250 g/ha, scale 0 to 10, 0 no effect, 10 complete control) was 0, the “Morningglory plant response rating” value (morningglory; [1]) was 10 and the “Morningglory plant response rating” value (morningglory; [2]) was 10. The “Morningglory plant response rating” value (morningglory; [3]) was 0, the “Plant response rating, Morningglory” value (morningglory; [4]) was 2 and the “Plant response rating, Morningglory” value (morningglory; [5]) was 2. The “Morningglory plant response rating” value (morningglory; [6]) was 2, the “Morningglory plant response rating” value (morningglory; [7]) was 8 and the “Morningglory plant response rating” value (morningglory; [8]) was 10. For the same molecule, the “B. signalgrass plant response rating” value (surinam grass; [14]) was 0, the “B. signalgrass plant response rating” value (surinam grass; [2]) was 0 and the “B. signalgrass plant response rating” value (surinam grass; [3]) was 0. The “Plant response rating, B. signalgrass” value (surinam grass; [4]) was 0, the “Plant response rating, B. signalgrass” value (surinam grass; [5]) was 3 and the “B. signalgrass plant response rating” value (surinam grass; [6]) was 5. For the same molecule, the “B. signalgrass plant response rating” value (surinam grass; Rate 125 g/ha, Postemergence, scale 0 to 10, 0 no effect, 10 complete control) was 0, the “B. signalgrass plant response rating” value (surinam grass; Rate 500 g/ha, Postemergence, scale of 0 to 10 where 0 is no effect and 10 is complete control) was 4 and the “Corn plant response rating” value (corn; [1]) was 0. For the same molecule, the “Corn plant response rating” value (corn; [2]) was 0, the “Corn plant response rating” value (corn; [3]) was 0 and the “Plant response rating, Corn” value (corn; [4]) was 0. For the same molecule, the “Plant response rating, Corn” value (corn; [5]) was 0, the “Corn plant response rating” value (corn; [6]) was 2 and the “Corn plant response rating” value (corn; [7]) was 0. For the same molecule, the “Corn plant response rating” value (corn; [8]) was 0, the “Soybean plant response rating” value (soybean; [1]) was 4 and the “Soybean plant response rating” value (soybean; [3]) was 0. The “Plant response rating, Soybean” value (soybean; [4]) was 0, the “Plant response rating, Soybean” value (soybean; [5]) was 0 and the “Soybean plant response rating” value (soybean; [6]) was 4. The “Soybean plant response rating” value (soybean; [7]) was 4, the “Plant response rating, Soybean” value (soybean; [13]) was 4 and the “Soybean plant response rating” value (soybean; [8]) was 7. For the same molecule, the “Rape plant response rating” value (rape; [1]) was 2, the “Rape plant response rating” value (rape; [2]) was 3 and the “Rape plant response rating” value (rape; [3]) was 0. For the same molecule, the “Plant response rating, Rape” value (rape; [4]) was 0, the “Plant response rating, Rape” value (rape; [5]) was 0 and the “Rape plant response rating” value (rape; [6]) was 5. For the same molecule, the “Rape plant response rating” value (rape; [7]) was 2, the “Rape plant response rating” value (rape; [8]) was 4 and the “Crabgrass plant response rating” value (crabgrass; [1]) was 4. For the same molecule, the “Crabgrass plant response rating” value (crabgrass; [2]) was 4, the “Crabgrass plant response rating” value (crabgrass; [3]) was 5 and the “Plant response rating, Crabgrass” value (crabgrass; [4]) was 6. The “Plant response rating, Crabgrass” value (crabgrass; [5]) was 10, the “Crabgrass plant response rating” value (crabgrass; [6]) was 10 and the “Crabgrass plant response rating” value (crabgrass; [7]) was 0. The “Crabgrass plant response rating” value (crabgrass; [8]) was 9, the “Cocklebur plant response rating” value (cocklebur; [1]) was 1 and the “Cocklebur plant response rating” value (cocklebur; [2]) was 2. The “Cocklebur plant response rating” value (cocklebur; [3]) was 0, the “Plant response rating, Cocklebur” value (cocklebur; [4]) was 0 and the “Plant response rating, Cocklebur” value (cocklebur; [5]) was 0. The “Cocklebur plant response rating” value (cocklebur; [6]) was 0, the “Cocklebur plant response rating” value (cocklebur; [7]) was 0 and the “Cocklebur plant response rating” value (cocklebur; [8]) was 2.
